According to patent US20250110152A1, “METHOD FOR CHARACTERIZING INTERACTION FORCE BETWEEN LIGNIN AND CELLULASE” (NANJING FORESTRY UNIVERSITY, priority 2022, published 2025):

System: cellulase
Assay: AFM test of lignin-cellulase interaction force and dissociation rate in liquid phase environment (cellulase-modified AFM probe, lignin film)
Details: for interaction force between lignin / lignin model substance and cellulase: AFM force-displacement curves, liquid phase; for Feq: system lignin (model substance)-cellulase

Row | SMILES | interaction force between lignin / lignin model substance and cellulase [nN] | most likely dissociation force (loading rate 3 pN/s) [nN] | most likely dissociation force (loading rate 10 pN/s) [nN] | Feq [nN] | most likely dissociation force (loading rate 5 pN/s) [nN] | most likely dissociation force (loading rate 15 pN/s) [nN] | most likely dissociation force (loading rate 20 pN/s) [nN] | further results
1 | COc1ccccc1O [GA] | 0.58 | 0.39 | 0.88 | 0.58 | – | – | – | most likely dissociation force (loading rate 4 pN/s): 0.41 nN; most likely dissociation force (loading rate 6.61 pN/s): 0.58 nN; most likely dissociation force (loading rate 9 pN/s): 0.63 nN
2 | COc1cc(C(O)C(CO)Oc2ccccc2OC)ccc1O (stereo not shown) [GG] | 2.59 | – | 1.92 | 2.59 | 1.65 | 2.27 | 2.46 | most likely dissociation force (loading rate 24.24 pN/s): 2.59 nN
3 | CCCc1ccc(O)c(OC)c1 [G] | 0.97 | 0.87 | – | 0.97 | – | – | – | most likely dissociation force (loading rate 1 pN/s): 0.39 nN; most likely dissociation force (loading rate 5.74 pN/s): 0.97 nN; most likely dissociation force (loading rate 7 pN/s): 1.06 nN; most likely dissociation force (loading rate 12 pN/s): 1.25 nN
4 | O=C(O)/C=C/c1ccc(O)cc1 [H] | 12.52 | – | 10.04 | 12.52 | 5.00 | 11.29 | 12.52 | most likely dissociation force (loading rate 7 pN/s): 5.49 nN
5 | COc1ccccc1OC(CO)C(O)c1cc(OC)c(O)c(OC)c1 (stereo not shown) [SG] | 11.69 | – | 7.65 | 11.69 | – | 8.80 | – | most likely dissociation force (loading rate 13 pN/s): 8.25 nN; most likely dissociation force (loading rate 18.64 pN/s): 11.69 nN; most likely dissociation force (loading rate 23 pN/s): 13.40 nN
6 | COc1cccc(OC)c1O [S] | 4.76 | 3.02 | – | 4.76 | 4.05 | – | 8.54 | most likely dissociation force (loading rate 7.89 pN/s): 4.76 nN; most likely dissociation force (loading rate 12 pN/s): 5.21 nN
7 | COc1cc(/C=C/CO)cc(OC)c1O [S—OH] | 4.31 | 3.99 | 4.58 | 4.31 | – | – | – | most likely dissociation force (loading rate 1 pN/s): 2.66 nN; most likely dissociation force (loading rate 5.79 pN/s): 4.31 nN; most likely dissociation force (loading rate 18 pN/s): 6.58 nN
